In assay [1] the test system is iCas9 H1-hESCs. Briefly: Phalloidin stain of filamentous (F-) ACTIN in fixed cells after dissociation. The class given is cell-based, human. The conditions noted are these: thiazovivin treated cells after dissociation, stain at 3.5 h. How it is done:
Immunofluorescence staining of fixed cells was performed as described by Ihry et. al., 2017. Protein lysates were made by vortexing cell pellets in […] (Thermo Scientific 89901) supplemented with Halt protease inhibitor cocktail (Thermo Scientific 78430) and phosphatase inhibitors (Thermo Scientific 1862495). Samples were incubated at 4 C for 10 minutes before centrifugation at 14,000×g for 10 minutes at 4 C. Supernatants were transferred to new tubes and quantified using the BCA protein assay kit (Thermo Scientific 23225) and a SpectraMax Paradigm (Molecular Devices) plate reader. Samples were prepared with NuPAGE LDS sample buffer 4× (Invitrogen NP0008) and NuPAGE sample reducing agent (Invitrogen NP0009) and heated for 10 minutes at 70 C. Chameleon Duo Pre-stained Protein Ladder (LiCOR P/N 928-60000) was loaded alongside 10 ug of protein per sample on a NuPAGE 4-12% Bis-Tris Protein Gels, 1.5 mm, 10-well (Invitrogen NP0335BOX). Gel electrophoresis was performed at 150 V for 1 hr in NuPAGE MOPS SDS Running buffer (20×) (Invitrogen NP0001) using a XCell SureLock Mini-Cell (Thermo Scientific E10002). Transfer was performed using an iBlot 2 dry blotting system (Thermo IB21002 and IB23002) as described by manufacturer. Blots were blocked in TBS blocking buffer (LiCOR 927-50000) for 1 hour at room temperature. […]

The subject of assay [2] is iCas9 H1-hESCs. The experiment in a line: Assaying survival without ROCK inhibitor (single cell dissociation and replating, IncuCyte confluence / time-lapse). The class given is cell-based, human. As to conditions: control and PAWR knockout hPSCs, in the presence of thiazovivin (ROCK inhibitor). How it is done:
Control and mutant iCas9 H1-hESCs were dissociated with accutase for 10 minutes. Flowmi 40-micron cell strainers (BEL-ART H13680-0040) were used to ensure a uniform single cell suspension prior to replating cells. Cells were plated at a density of 10,500 to 21,000 cells/cm^2 plus or minus thiazovivin (ROCK inhibitor). Timelapse images were taken in 1 hr intervals using IncuCyte zoom (Essen Biosciences). The confluence processing analysis tool (IncuCyte Zoom Software) calculated confluency for each sample.

SMILES strings stand for the structures. “Also recorded” adds a separate entry of the source.

The record followed here is patent US20210123016A1, “REGULATORS OF HUMAN PLURIPOTENT STEM CELLS AND USES THEREOF” (Novartis AG, priority 2018, published 2021).

Regarding `O=C(NCc1ccccc1)c1csc(Nc2ccncn2)n1` [thiazovivin], the “cytoskeletal organization (F-ACTIN, phalloidin)” value in the assay on iCas9 H1-hESCs [1] was “increased surface area, a fanned-out shape with actin stress fibers, and a large circular adhesion belt-like structure”. In addition, in the assay with iCas9 H1-hESCs [2], the “survival after single cell dissociation and replating” value was “survive replating; also recorded: survived as single cells”.
